Source: patent US9745357B2, “Peptides used for treating cancers and, in particular, chronic lymphoid leukaemia” (Centre National de la Recherche Scientifique, priority 2009, dated 2017)

Tests used:
[1] = tested on: cap-dependent translation (eIF4E-dependent); experiment: Effect of the peptides on translation of capped luciferase mRNA in rabbit reticulocyte lysate; assay type: biochemical; conditions: 50 μM peptide, compared with DMSO = 100%, FIG. 2
Method: The peptides having the IRS motif and the sequences of 4EBPlike type (A1WT, BPSgWT, and BP2WT) or the mutant sequences of 4EPBlike type (A1YALA, BPSgYALA, BP2YALA) are incubated in rabbit reticulocyte lysate containing capped mRNAs encoding luciferase, an enzyme of which the activity can be easily assayed. The translational activity is directly proportional to the activity of the luciferase produced. The translational activity in the presence of peptide is compared with that obtained during the addition of an equivalent volume of DMSO, considered to be 100%.
The peptides were produced, purified by HPLC (purity>95%), and freeze-dried by Thermofisher Scientific. The peptides were then dissolved at 10 mM in DMSO.
The capped mRNAs encoding Renilla luciferase (Luc R) were produced by the T7 Message Machine Kit system (Ambion) from the pGb-Eg2-410Δ2-hxG-A65 plasmid linearized with EcoRV (Legagneux V, Omilli F, Osborne HB (1995) Substrate-specific regulation of RNA deadenylation in Xenopus embryo and activated egg extracts. RNA 1: 1001-1008).
The Luc R mRNAs were translated for one hour at 30° C. in rabbit reticulocyte lysate (Flexi Rabbit Reticulocyte Lysate System, Promega) in the presence of 50 μM of peptide. The luciferase activity was determined using the Renilla luciferase assay (Promega) on the Tristar LB941 luminometer (Berthold).
A capped mRNA (having a cap at the 5′ end) encoding luciferase, a protein which can be easily assayed by measuring its activity, was translated in the presence of these various peptides in rabbit reticulocyte lysate (FIG. 2). The luciferase activity measured is directly proportional to the amount of luciferase protein produced and therefore to the cap-dependent translational activity. Since the peptides are dissolved in DMSO, it was important to test the effect of DMSO on the translation. […] The translational activity in the presence of peptide was compared with that obtained when an equal volume of DMSO is added, considered to be equal to 100%.

[2] = tested on: B lymphocytes from patients suffering from chronic lymphoid leukemia (CLL); conditions: for effect on percentage cell survival / cell effect CLL 40 (survival): 40 μM peptide; for effect on percentage cell survival: 4 H and 24 H, FIG. 3; for cell effect CLL 40 (survival): 4 hours of culture, cells not labeled with annexin or propidium iodide; for effect of the peptide on cell mortality, in words (relative to A1 WT IRS): 40 μM, 4 hours, FIG. 9; for action of the peptide on cell survival, in words, cell type not given: Example 6 (CLL cells, control T lymphocytes, Jok cells)
Method: Peripheral blood B lymphocytes taken from patients suffering from CLL and then purified on a Ficoll cushion and placed in culture are incubated in the presence of […] of the peptides described for FIG. 2. The percentage cell survival after 4 hours (gray column) or 24 hours (white column) of culture corresponds to the percentage of cells labeled neither with annexin nor with propidium iodide, evaluated by flow cytometry.
The CLL B lymphocytes were obtained from peripheral blood of 18 different patients suffering from chronic lymphoid leukemia. […] The samples were taken in the Brest hospital center, in the hematology department. The blood samples were taken after informing the patients and obtaining their informed consent.
The lymphocytes, mononuclear cells, were isolated from the heparinized peripheral blood samples by Ficoll-Hypaque (LSM 1077 lymphocyte, euro-bio) centrifugation. The red blood cells were lyzed by incubation for 10 min in VersaLyse Lysing Solution (Beckman Coulter). The mononuclear cells are obtained after 2 washes in culture medium (RPMI1640, Gibco BRL).
(§1) The cells were cultured in a culture medium composed either of RPMI 1640 (B lymphocytes) or of DMEM (COS7, HCT116, HGT1, 293, HeLa) containing 10% of FCS (fetal calf serum, 1% of penicillin-streptomycin and 1% of glutamine, Gibco BRL). The cells are distributed in a 24-well plate and cultured at 37° C. in a humid atmosphere under 5% CO2.
(§2) 400 μl of cell suspension (1×10^6 cells/ml) per well were treated for 4 h or 24 h with various concentrations of peptides. The test for activity of the peptides in the presence of emetine (FIG. 6) was carried out by preincubating the cells with 100 μM of emetine for one hour before the addition of peptide.
(§3) After the cells have been washed with PBS, they were analyzed using the Annexin V-FITC IP system according to the supplier's recommendations (Beckman Coulter).
The cells taken from patients suffering from chronic lymphoid leukemia were purified on a Ficoll cushion. […] The cells were placed in culture in RPMI medium in the presence of 10% FCS (fetal calf serum). The peptides were added directly to the culture medium. These peptides comprise the IRS sequence (the amino acid sequence of which is RYIRS) which is known to allow the penetration of peptides into B lymphocytes in culture (Dong et al., 2005). […] The cells which survive the treatment are those which are labeled neither with annexin nor with propidium iodide.

[3] = tested on: Jok cells (cell line derived from B lymphocytes); experiment: Cell survival of Jok cells, annexin/propidium iodide flow cytometry; assay type: cell-based, human; conditions: for cell effect Jok 20 (survival): 20 μM peptide; for cell effect Jok 20 (survival) / cell effect Jok 40 (survival): 4 hours of culture, cells not labeled with annexin or propidium iodide; for cell effect Jok 40 (survival): 40 μM peptide; for effect of the peptide on cell mortality, in words (relative to A1 WT IRS): 4 hours, FIG. 9
Method: The cells are treated as indicated for FIG. 7, with the CLL cells, control T lymphocytes and Jok lymphocytes, which are incubated with the A1 WT IRS peptide and derivatives thereof described in table 1. The Jok cells were incubated either with 20 μM (JOK 20) or with 40 μM (JOK 40) of each of the peptides. In the interests of simplifying the legend, the A1 WT IRS peptide is referred to as “WT”. Likewise, the derivatives thereof are referred to by the name of the mutations (A1 K3I IRS is referred to as “K3I”, for example).
as §1, §2, §3
The peptides were tested on B lymphocytes from patients suffering from chronic lymphoid leukemia, control T lymphocytes, or Jok cells (cell line derived from B lymphocytes). The experiment was repeated three times for each type of cell tested.

[4] = tested on: control T lymphocytes (patients suffering from hemochromatosis); experiment: Cell survival of control T lymphocytes, annexin/propidium iodide flow cytometry; assay type: cell-based, human; conditions: 40 μM peptide, 4 hours of culture, cells not labeled with annexin or propidium iodide
Method: FIG. 7: Activity of the A1WT peptide on cells of lymphocytic, lymphoid, gastric, colonic or renal origin The cells are prepared and placed in culture (see Materials and Methods) and then incubated for 4 H with the A1WT or A1 YALA peptide. The percentage cell survival corresponds to the percentage of cells labeled neither with annexin nor with propidium iodide, evaluated by flow cytometry. The names of the pathological conditions from which the patients from whom the samples are taken are suffering are indicated under the figure. The control T (L.T.) and B (L.B.) lymphocytes are taken from patients suffering from a disease not related to a lymphocytic pathological condition (hemochromatosis).
The control B lymphocytes and T lymphocytes originate from peripheral blood samples from patients suffering from hemochromatosis, provided by the CTS transfusion center in Brest. The B and T lymphocytes were isolated using the Rosett-Sep kit (Stemcell Technologies) according to the supplier's recommendations.
as §1, §2, §3

[5] = tested on: control T lymphocytes (patients suffering from hemochromatosis); experiment: as above; assay type: cell-based, human; conditions: 40 μM, 4 hours; FIG. 9
[6] = concentration not given (20 or 40 μM)

Row | Sequence | inhibition of translation (luciferase activity) [1] | inhibition of translation (luciferase activity) ([1]; listed as BP2) | effect on percentage cell survival [2] | cell effect CLL 40 (survival) [2] | effect of the peptide on cell mortality, in words (relative to A1 WT IRS) [2] | action of the peptide on cell survival, in words, cell type not given [2] | cell effect Jok 20 (survival) [3] | cell effect Jok 40 (survival) [3] | effect of the peptide on cell mortality, in words (relative to A1 WT IRS) [3, 6] | cell effect LT 40 (survival) [4] | effect of the peptide on cell mortality, in words (relative to A1 WT IRS) [5] | effect of the peptide on cell mortality, in words (relative to A1 WT IRS) ([3]; 20 μM) | effect of the peptide on cell mortality, in words (relative to A1 WT IRS) ([3]; 40 μM)
1 | RIIYDRKFLLDRRYIRS [BP2 WT IRS, reference compound] | strong inhibition of the translation | effectively inhibits eIF4E-dependent translation | the percentage survival did not decrease | − (−: survival >50%) | has no effect | has no effect on cell survival | − (−: survival >50%) | − (−: survival >50%) | has no effect | – | – | – | –
2 | RRKAGRDFAARFRYIRS [A1 YALA IRS, reference compound] | does not inhibit the translation | – | has no effect | − (−: survival >50%) | – | has no effect | − (−: survival >50%) | − (−: survival >50%) | – | − (−: survival >50%) | – | – | –
3 | RIIADRKFAADRRYIRS [BP2 YALA IRS, YALA mutant control of BP2 WT IRS] | does not cause any inhibition of the translation | – | – | – | – | – | – | – | – | – | – | – | –
4 | RRKYGRDFLLRKRYIRS [A1 F12K IRS] | – | – | – | − (−: survival >50%) | completely abolishes the action | – | − (−: survival >50%) | − (−: survival >50%) | completely abolishes the action | − (−: survival >50%) | completely abolishes the action | – | –
5 | RRKYGRAFLLFRFYIRS [A1 D7A IRS] | – | – | – | + (+: survival <25%) | does not modify the action | – | + (+: survival <25%) | + (+: survival <25%) | – | + (+: survival <25%) | does not modify the action | – | –
6 | KYGRDFLLRFRYIRS [A1 del2 IRS, deletion of the first two amino acids] | – | – | – | − (−: survival >50%) | loss of effect | – | +/− (+/−: survival between 25 and 50%) | + (+: survival <25%) | – | − (−: survival >50%) | loss of effect | loss of effect | considerable mortality
